# Literature values in patent US20190380992A1 (Biogen MA Inc., priority 2014, published 2019).
# Counter-ions that a name gives are not always drawn.
# Columns and labels:
# patients initiating DMF = conditions: DEFINE and CONFIRM studies
# [1] = system: multiple sclerosis patients; conditions: second phase 3 study; glatiramer acetate as active reference
# [2] = system: multiple sclerosis patients; conditions: compared with placebo after two years of treatment
smiles,measurement,setting,value
"COC(=O)/C=C/C(=O)OC [DMF, dimethyl fumarate]",safety profile,patients initiating DMF,acceptable safety profile
same,support of the DEFINE findings,[1],findings were supported
same,accumulation of disability progression,[2],significantly reduced
same,clinical relapses,[2],significantly reduced
same,lesion number and volume,[2],significantly reduced
